Experimental data as given in PubChem BioAssay AID328 (DTP/NCI, 2004).
Inconclusive results and toxic doses are left out. Rule for the calls: active = survival T/C of 150% or more; inactive = T/C below 125% in these data.

System: BDF1 mice, P388 leukemia ip, median survival T/C
Assay: NCI In Vivo Anticancer Drug Screen. Data for tumor model P388 Leukemia (intraperitoneal) in B6D2F1 (BDF1) mice
Settings: endpoint: median survival time, higher = longer survival
Method in brief: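 Each value expresses how treatment altered survival: treated-mouse outcome over vehicle-mouse outcome, both groups bearing the transplanted tumour.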

[1] = dose: 25.0 mg/kg/injection, schedule: Q01DX009 (ip), vehicle: Klucel (hydroxypropylcellulose) (HPC)
[2] = dose: 50.0 mg/kg/injection, schedule: Q01DX009 (ip), vehicle: Klucel (hydroxypropylcellulose) (HPC)
[3] = dose: 100.0 mg/kg/injection, schedule: Q01DX009 (ip), vehicle: Klucel (hydroxypropylcellulose) (HPC)
[4] = dose: 100.0 mg/kg/injection, schedule: Q04DX003 (ip), vehicle: saline
[5] = dose: 200.0 mg/kg/injection, schedule: Q04DX003 (ip), vehicle: saline
[6] = dose: 100.0 mg/kg/injection, schedule: Q04DX003 (ip), vehicle: saline with Tween-80
[7] = dose: 200.0 mg/kg/injection, schedule: Q04DX003 (ip), vehicle: saline with Tween-80
[8] = dose: 400.0 mg/kg/injection, schedule: Q04DX003 (ip), vehicle: saline with Tween-80
[9] = dose: 200.0 mg/kg/injection, schedule: Q01DX009 (ip), vehicle: Klucel (hydroxypropylcellulose) (HPC)
[10] = dose: 50.0 mg/kg/injection, schedule: Q01DX009 (ip), vehicle: saline with Tween-80
[11] = dose: 100.0 mg/kg/injection, schedule: Q01DX009 (ip), vehicle: saline with Tween-80
[12] = dose: 200.0 mg/kg/injection, schedule: Q01DX009 (ip), vehicle: saline with Tween-80
[13] = dose: 100.0 mg/kg/injection, schedule: Q04DX003 (ip), vehicle: Klucel (hydroxypropylcellulose) (HPC)
[14] = dose: 200.0 mg/kg/injection, schedule: Q04DX003 (ip), vehicle: Klucel (hydroxypropylcellulose) (HPC)

Measured: T/C

[Cl][Ni+2][Cl].[NH-]CCN1CC1
inactive: dose: 6.25 mg/kg/injection, schedule: Q01DX001 (ip), vehicle: saline 90 % of control | dose: 12.5 mg/kg/injection, schedule: Q01DX001 (ip), vehicle: saline 100 % of control | dose: 25.0 mg/kg/injection, schedule: Q01DX001 (ip), vehicle: saline 100 % of control

C[n+]1ccc(Nc2ccc(NC(=O)c3ccc(C(=O)Nc4ccc(Nc5cc[n+](C)c(N)n5)cc4)cc3)cc2)nc1N
active: dose: 6.3 mg/kg/injection, schedule: Q01DX007 (ip), vehicle: Klucel (hydroxypropylcellulose) (HPC) 180 % of control | dose: 6.3 mg/kg/injection, schedule: Q01DX009 (ip), vehicle: saline 155 % of control | dose: 9.6 mg/kg/injection, schedule: Q01DX007 (ip), vehicle: Klucel (hydroxypropylcellulose) (HPC) 180 % of control | dose: 9.6 mg/kg/injection, schedule: Q01DX009 (ip), vehicle: saline 161 % of control | dose: 12.5 mg/kg/injection, schedule: Q01DX009 (ip), vehicle: Klucel (hydroxypropylcellulose) (HPC) 190 % of control | dose: 14.0 mg/kg/injection, schedule: Q01DX007 (ip), vehicle: Klucel (hydroxypropylcellulose) (HPC) 175 % of control | dose: 14.0 mg/kg/injection, schedule: Q01DX009 (ip), vehicle: saline 150 % of control | [1] 172 % of control | [2] 204 % of control | [3] 259 % of control | [4] 172 % of control | [5] 163 % of control

CCCNC(=O)Nc1cccc(C(F)(F)F)c1
inactive: [6] 104 % of control | [7] 109 % of control | [8] 100 % of control

O=S1(=O)CC(Cl)(Br)C1
inactive: [2] 105 % of control | [3] 114 % of control | [9] 123 % of control

CC(C)CCNc1ncnc2[nH]ncc12
inactive: dose: 5.5 mg/kg/injection, schedule: Q01DX009 (ip), vehicle: Klucel (hydroxypropylcellulose) (HPC) 95 % of control | dose: 8.2 mg/kg/injection, schedule: Q01DX009 (ip), vehicle: Klucel (hydroxypropylcellulose) (HPC) 100 % of control | dose: 18.75 mg/kg/injection, schedule: Q04DX003 (ip), vehicle: Klucel (hydroxypropylcellulose) (HPC) 86 % of control | [1] 90 % of control | dose: 25.0 mg/kg/injection, schedule: Q01DX009 (ip), vehicle: saline with Tween-80 90 % of control | dose: 37.5 mg/kg/injection, schedule: Q04DX003 (ip), vehicle: Klucel (hydroxypropylcellulose) (HPC) 104 % of control | [10] 90 % of control | dose: 75.0 mg/kg/injection, schedule: Q04DX003 (ip), vehicle: Klucel (hydroxypropylcellulose) (HPC) 86 % of control

CCOC(=O)Cn1nc(-c2ccc([N+](=O)[O-])o2)sc1=O
inactive: [10] 110 % of control | [11] 94 % of control | [12] 117 % of control

CC(C)SC(=O)C[Si](C)(C)C
active: [6] 166 % of control | [7] 166 % of control

Cc1ccc(C(=O)CCCCCCCCC(=O)c2ccc(C)cc2)cc1
inactive: [6] 100 % of control | [7] 90 % of control | [8] 100 % of control

C=Cn1ccnc1C.C=Cn1ccnc1C.CC(=O)CC(C)=O.CC(=O)CC(C)=O.[Ni]
inactive: dose: 12.5 mg/kg/injection, schedule: Q04DX002 (ip), vehicle: saline 119 % of control | dose: 25.0 mg/kg/injection, schedule: Q04DX002 (ip), vehicle: saline 117 % of control | dose: 50.0 mg/kg/injection, schedule: Q04DX002 (ip), vehicle: saline 112 % of control

C(#Cc1ccccc1)COCC1CO1 (centres undefined)
inactive: [11] 116 % of control | [4] 90 % of control | [5] 90 % of control | dose: 400.0 mg/kg/injection, schedule: Q04DX003 (ip), vehicle: saline 120 % of control

Cc1ccc(S(=O)(=O)N2CC3CC2CN3Cc2ccccc2)cc1 (centres undefined)
inactive: [3] 109 % of control | [13] 104 % of control | [9] 104 % of control | [14] 100 % of control | dose: 400.0 mg/kg/injection, schedule: Q01DX009 (ip), vehicle: Klucel (hydroxypropylcellulose) (HPC) 100 % of control | dose: 400.0 mg/kg/injection, schedule: Q04DX003 (ip), vehicle: Klucel (hydroxypropylcellulose) (HPC) 95 % of control

CC(Br)C(=O)NC(C)C(=O)O (centres undefined)
inactive: [6] 100 % of control | [7] 109 % of control | [8] 118 % of control

O=C(CC(C(=O)c1ccccc1)N1CC1)c1ccccc1 (centres undefined)
inactive: dose: 50.0 mg/kg/injection, schedule: Q04DX003 (ip), vehicle: saline with Tween-80 90 % of control | [6] 90 % of control

CSc1ncnc2c1ncn2CO
inactive: dose: 30.0 mg/kg/injection, schedule: Q01DX009 (ip), vehicle: Klucel (hydroxypropylcellulose) (HPC) 110 % of control | dose: 30.0 mg/kg/injection, schedule: Q01DX009 (ip), vehicle: saline 108 % of control | dose: 150.0 mg/kg/injection, schedule: Q01DX009 (ip), vehicle: Klucel (hydroxypropylcellulose) (HPC) 90 % of control | [8] 95 % of control
active: [3] 150 % of control | [11] 154 % of control | dose: 120.0 mg/kg/injection, schedule: Q01DX009 (ip), vehicle: Klucel (hydroxypropylcellulose) (HPC) 150 % of control

NNc1ncnc2c(C3OC(CO)C(O)C3O)[nH]nc12 (centres undefined)
inactive: dose: 20.0 mg/kg/injection, schedule: Q01DX009 (ip), vehicle: water 100 % of control | dose: 30.0 mg/kg/injection, schedule: Q01DX009 (ip), vehicle: water 105 % of control | dose: 45.0 mg/kg/injection, schedule: Q01DX009 (ip), vehicle: water 110 % of control | dose: 67.0 mg/kg/injection, schedule: Q01DX009 (ip), vehicle: water 95 % of control | dose: 100.0 mg/kg/injection, schedule: Q01DX009 (ip), vehicle: water 100 % of control

CSc1nc(NN(C)C)c2[nH]c(C)nc2n1
inactive: dose: 0.78 mg/kg/injection, schedule: Q01DX009 (ip), vehicle: saline with Tween-80 97 % of control | dose: 1.56 mg/kg/injection, schedule: Q01DX009 (ip), vehicle: saline with Tween-80 116 % of control | dose: 3.13 mg/kg/injection, schedule: Q01DX009 (ip), vehicle: saline with Tween-80 111 % of control | dose: 6.25 mg/kg/injection, schedule: Q01DX009 (ip), vehicle: saline with Tween-80 87 % of control

CN(c1ccccc1)c1cc2c(cc1[N+](=O)[O-])no[n+]2[O-]
inactive: dose: 15.0 mg/kg/injection, schedule: Q01DX009 (ip), vehicle: saline with Tween-80 118 % of control | dose: 60.0 mg/kg/injection, schedule: Q01DX009 (ip), vehicle: saline with Tween-80 113 % of control

CCOC(=O)c1c[nH]c2nc(SC)nc(NC(C)=O)c2c1=O
inactive: [10] 102 % of control | [11] 87 % of control | [12] 89 % of control

CN(CC[N+]1(C)CCCC1)P(=O)(N1CCCC1)N1CCCC1
inactive: dose: 50.0 mg/kg/injection, schedule: Q01DX009 (ip), vehicle: saline 106 % of control | dose: 100.0 mg/kg/injection, schedule: Q01DX009 (ip), vehicle: saline 101 % of control | dose: 200.0 mg/kg/injection, schedule: Q01DX009 (ip), vehicle: saline 109 % of control

COc1cc(C=O)ccc1OCc1ccccc1
inactive: dose: 1.0 mg/kg/injection, schedule: Q01DX009 (ip), vehicle: saline with Tween-80 109 % of control | dose: 2.0 mg/kg/injection, schedule: Q01DX009 (ip), vehicle: saline with Tween-80 104 % of control | dose: 4.0 mg/kg/injection, schedule: Q01DX009 (ip), vehicle: saline with Tween-80 104 % of control | dose: 8.0 mg/kg/injection, schedule: Q01DX009 (ip), vehicle: saline with Tween-80 92 % of control | [6] 95 % of control | [7] 109 % of control | [8] 109 % of control

CC1(O)c2cccc3c2C2(O)c4c1cccc4C(C)(O)c1cccc(c12)C3(C)O (centres undefined)
inactive: dose: 50.0 mg/kg/injection, schedule: Q04DX003 (ip), vehicle: Klucel (hydroxypropylcellulose) (HPC) 100 % of control | [13] 105 % of control | [14] 105 % of control

CN1C(=O)C(Br)=C(c2cccs2)C1=O
inactive: dose: 25.0 mg/kg/injection, schedule: Q01DX001 (ip), vehicle: saline with Tween-80 109 % of control | dose: 50.0 mg/kg/injection, schedule: Q01DX001 (ip), vehicle: saline with Tween-80 103 % of control

CCCNC(=O)Nc1ccc(C(=O)OCC(C)C)cc1
inactive: [6] 104 % of control | [7] 100 % of control | [8] 100 % of control
